Data from US9790286B2, “Stereoisomer peptides, their polymer conjugates, their encapsulation into nanoparticles, and uses thereof for the treatment of diseases caused by abnormal angiogenesis” (priority 2013, dated 2017).

What was measured:
PANC-1 Xenograft = assay: PANC-1 xenograft mouse model of pancreatic ductal carcinoma; type: in vivo; settings: 120 mg/Kg i.p. twice a week for 6 weeks
Procedure: (§1) Peptides in their stereoisomer forms were tested in vivo using two mouse models of human pancreatic ductal adenocarcinoma: the PANC-1 Xenograft mouse model and the MiaPaca-2 Xenograft mouse model. Athymic male nude mice (nu/nu) were injected s.c. with cultured […] human pancreatic cancer cells from each different model in the right mice flanks After tumors reached ˜150 mm^3 mice were randomly separated into three groups (n=3/group). Group 1 was treated with vehicle; Group 2 was treated with 120 mg/Kg Gemcitabine (standard established dose); and Group 3 was treated with 25 mg/kg of a combination of four stereoisomer peptides. Mice were dosed by i.p. injection twice a week for 6 weeks.

MiaPaca-2 Xenograft = assay: MIAPaCa-2 xenograft mouse model of pancreatic ductal carcinoma; type: in vivo; settings: 120 mg/Kg i.p. twice a week for 6 weeks
Procedure: as §1
In this model the tumors of treated mice grew slowly compared to untreated mice (see FIG. 14A). […] These two human mouse models confirm the therapeutic potency, efficacy, and value of the stereoisomer peptides to treat pancreatic cancer, one of the deadliest cancers for which there are no therapies.

For `Nc1ccn([C@@H]2O[C@H](CO)[C@@H](O)C2(F)F)c(=O)n1` [Gemcitabine], the condition of mice (PANC-1 Xenograft) was “moribund”, the body weight (MiaPaca-2 Xenograft) was “lost body weight” and the condition of mice (MiaPaca-2 Xenograft) was “moribund”. For the same molecule, the livers after euthanasia (MiaPaca-2 Xenograft) was “dark with signs of necrosis”.
